In EP1762239A1, “Lofexidine for intraspinal administration” (Texcontor Etablissement, priority 2005, dated 2007):
Where “and” joins values, the source holds several entries; their conditions need not be identical. Identical values can stand only once. Counter-ions that a name gives are not always drawn.

Legend:
[1] = tested on: rat model of neuropathic pain; assay: Nerve ligation-induced chronic (neuropathic) pain model, mechanical allodynia by electronic von Frey; assay type: in vivo, Wistar rats; details: for Tactile Pressure (g) Post-Treatment Average / Tactile Pressure (g) Δ Treatment Average: group of 5; for Tactile Pressure (g) Post-Treatment / Tactile Pressure (g) Δ Treatment: individual animal; for Inhibition (%): Δ Treatment/Δ Blank x 100%
Method: Lofexidine was evaluated for possible analgesic activity in neuropathic pain using a nerve ligation-induced chronic pain model in rats. Lofexidine HCl was administered intrathecally (ITH) at 3.2 and 10 µg/animal and analgesia was measured at 15, 30, 60 and 120 minutes post-dosing using an Electronic Von Frey Aesthesiometer (IITC, USA) with a #12 supertip. A 50 % or greater (≥50%) inhibition relative to blank indicates possible analgesic activity. Lofexidine HCl at doses of 3.2 and 10 µg/animal were administered intrathecally. Sterile Saline (obtained from Sintong Biotech Company, Taiwan) was used as vehicle and dosing volume was 10 µl/animal. Male Wistar rats provided by Biolasco Taiwan (under a Charles River Laboratories Technology Licensee) were used. Space allocation for 6 animals was 45 x 23 x 21 cm. Animals were housed in APEC^R cages and maintained in a controlled temperature (22-23°C) and humidity (60-70%) environment with 12 hours light dark cycles for at least one week in MDS Pharma Services - Taiwan Laboratory prior to use. Free access to standard lab chow for rats (Lab Diet, Rodent Diet, PMI Nutrition International, USA) and tap water was granted. All aspects of this work including housing, experimentation and disposal of animals were performed in general accordance with the Guide for the Care and Use of Laboratory Animals (National Academy Press, Washington, D. C, 1996). Male Wistar rats weighing 160 to 200 g were used. Under pentobarbital (50 mg/kg, 5 ml/kg, i.p.) anesthesia, the sciatic nerve was exposed at mid-thigh level. Three ligatures (4-0 silk suture), about 1 mm apart, were loosely tied around th e nerve. The animals were then housed individually in cages with soft bedding for 7 days before testing for mechanical allodynia. On the test day, rats were placed under inverted plexiglas cages on a wire mesh rack and allowed to acclimatise for 20 to 30 minutes. Allodynia was evaluated by responsiveness to a #12 Supertip® (IITC, USA) applied beneath the mesh floor perpendicular to the central plantar surface of the left hind paw. The tip was gradually applied with sufficient force to cause slight buckling of the filament against the paw. A positive response to the applied tactile pressure, noted by sharp withdrawal of the paw, was recorded automatically by an Electronic Von Frey Aesthesiometer (2290CE Electrovonfrey®, IITC, USA). The endpoint is the withdrawal threshold (gm) to von Frey filament, serving as a measure of analgesic activity. Rats were pre-selected (for presence of allodynia) for experimentation only if the withdrawal threshold 7 days after nerve ligation (pre-treatment) was reduced by 10 grams of force relative to the response of the individual paw before nerve ligation (pre-ligation). Test substance or vehicle was administered intrathecally (3.2 µg and 10 µg/animal) to groups of 5 animals and the level of allodynia was again determined (at 15, 30, 60 and 120 minutes post-treatment). Allodynia is calculated as follows: % Inhibition=Δ Treatment/Δ Blank x 100%; where Δ Treatment is Tactile Pressure [(Post-Treatment) -(Pre-Treatment)] and Δ Blank is Tactile Pressure [(Pre-Ligation) - (Pre-Treatment)]. A 50 percent or greater (≥50%) inhibition relative to blank indicates possible analgesic activity.

[2] = Brief observation of general behavior after intrathecal injection; assay type: in vivo, Wistar rats; details: 0.00032 mg/rat and 0.0032 mg/rat (ITH)
Method: Evaluation for pain was performed at 24 hours postoperatively between 08:00 and 16:00h. Each animal was monitored at 15, 30, 60 and 120 minutes after intrathecal administration of lofexidine.HCl. The rats were placed under inverted plexiglas cages on a wire mesh rack and a brief observation of general behavior post-injection was made. The rigid tip part of the Electronic Von Frey Aesthesiometer was applied perpendicularly from underneath the mesh floor to the four points around the wound surface of the animal with slow upward force against the paw. A positive response to tactile pressure was recorded if the paw was sharply withdrawn; ambulation was considered an ambiguous response, and in such cases, the stimulus was reapplied. Mean values from 4 points for each rat and from 5 rats in each group were calculated. Percent inhibition due to treatment relative to pre-treatment pain response was calculated according to the formula: Tactile Pressure [(Post-Treatment) - (Pre-Treatment)]/[(Pre-Incision) - (Pre-Treatment)] x 100%. Inhibition by 50% or more (≥50%) is considered significant analgesic effect. Unpaired Student's t test is applied for comparison of the % inhibition values between test substance-and vehicle-treated groups. Significance is considered at P<0.05 level

[3] = given orally; dosages of up to 1200 µg per day; Human Reproduction, Vol. 16, No. 8, 2001; cited from earlier work
[4] = 3.2 µg/animal ITH, 120 Minutes, listed as Lofexidine HCI
[5] = 10 µg/animal ITH, 120 Minutes, listed as Lofexidine HCI

CC(Oc1c(Cl)cccc1Cl)C1=NCCN1 (centres unmarked) [Lofexidine HCl]
analgesic activity ([1]; 3.2 µg/animal): low levels of analgesic activity | Tactile Pressure (g) Post-Treatment Average ([1]; 3.2 µg/animal ITH, 15 Minutes): 12.5 g | Tactile Pressure (g) Δ Treatment Average ([1]; 3.2 µg/animal ITH, 15 Minutes, Δ Blank 30.2): 1.3 g | Tactile Pressure (g) Post-Treatment ([1]; 3.2 µg/animal ITH, 15 Minutes): 8.9 g and 5.8 g and 23.3 g and 13.4 g and 10.9 g | Tactile Pressure (g) Δ Treatment ([1]; 3.2 µg/animal ITH, 15 Minutes): -1.8 g and -5.2 g and 8.5 g and 6.3 g and -1.1 g | Inhibition (%) ([1]; 3.2 µg/animal ITH, 15 Minutes): 4% | Tactile Pressure (g) Post-Treatment Average ([1]; 3.2 µg/animal ITH, 30 Minutes): 10.1 g | Tactile Pressure (g) Δ Treatment Average ([1]; 3.2 µg/animal ITH, 30 Minutes, Δ Blank 30.2): -1.1 g | Tactile Pressure (g) Post-Treatment ([1]; 3.2 µg/animal ITH, 30 Minutes): 7.4 g and 14.2 g and 8.5 g and 10.0 g and 10.2 g | Tactile Pressure (g) Δ Treatment ([1]; 3.2 µg/animal ITH, 30 Minutes): -3.8 g and -0.6 g and 1.4 g and -2.0 g and -0.5 g | Inhibition (%) ([1]; 3.2 µg/animal ITH, 30 Minutes): -4% | Tactile Pressure (g) Post-Treatment Average ([1]; 3.2 µg/animal ITH, 60 Minutes): 9.3 g | Tactile Pressure (g) Δ Treatment Average ([1]; 3.2 µg/animal ITH, 60 Minutes, Δ Blank 30.2): -1.8 g | Tactile Pressure (g) Post-Treatment ([1]; 3.2 µg/animal ITH, 60 Minutes): 7.5 g and 12.7 g and 11.3 g and 6.5 g and 8.7 g | Tactile Pressure (g) Δ Treatment ([1]; 3.2 µg/animal ITH, 60 Minutes): -3.7 g and -2.1 g and 4.2 g and -5.5 g and -2.0 g | Inhibition (%) ([1]; 3.2 µg/animal ITH, 60 Minutes): -6% | Tactile Pressure (g) Post-Treatment Average ([1]; 3.2 µg/animal ITH, 120 Minutes): 9.2 g | Tactile Pressure (g) Δ Treatment Average ([1]; 3.2 µg/animal ITH, 120 Minutes, Δ Blank 30.2): -2.0 g | Tactile Pressure (g) Post-Treatment [1, 4]: 6.1 g and 12.4 g and 7.9 g and 10.8 g and 8.6 g | Tactile Pressure (g) Δ Treatment [1, 4]: -5.1 g and -2.4 g and 0.8 g and -1.2 g and -2.1 g | Inhibition (%) ([1]; 3.2 µg/animal ITH, 120 Minutes): -7% | Tactile Pressure (g) Post-Treatment Average ([1]; 10 µg/animal ITH, 15 Minutes): 23.3 g | Tactile Pressure (g) Δ Treatment Average ([1]; 10 µg/animal ITH, 15 Minutes, Δ Blank 27.9): 13.0 g | Tactile Pressure (g) Post-Treatment ([1]; 10 µg/animal ITH, 15 Minutes): >36.8 g and 12.4 g and 17.2 g and 26.7 g and 23.6 g | Tactile Pressure (g) Δ Treatment ([1]; 10 µg/animal ITH, 15 Minutes): 24.7 g and 1.5 g and 11.0 g and 15.7 g and 12.3 g | Inhibition (%) ([1]; 10 µg/animal ITH, 15 Minutes): 47% | Tactile Pressure (g) Post-Treatment Average ([1]; 10 µg/animal ITH, 30 Minutes): 26.4 g | Tactile Pressure (g) Δ Treatment Average ([1]; 10 µg/animal ITH, 30 Minutes, Δ Blank 27.9): 16.1 g | Tactile Pressure (g) Post-Treatment ([1]; 10 µg/animal ITH, 30 Minutes): 42.6 g and 7.0 g and >31.5 g and >35.5 g and 15.6 g | Tactile Pressure (g) Δ Treatment ([1]; 10 µg/animal ITH, 30 Minutes): 30.5 g and -3.9 g and 25.3 g and 24.5 g and 4.3 g | Inhibition (%) ([1]; 10 µg/animal ITH, 30 Minutes): 58% | Tactile Pressure (g) Post-Treatment Average ([1]; 10 µg/animal ITH, 60 Minutes): 20.8 g | Tactile Pressure (g) Δ Treatment Average ([1]; 10 µg/animal ITH, 60 Minutes, Δ Blank 27.9): 10.5 g | Tactile Pressure (g) Post-Treatment ([1]; 10 µg/animal ITH, 60 Minutes): 20.5 g and 15.1 g and 36.5 g and 23.2 g and 8.9 g | Tactile Pressure (g) Δ Treatment ([1]; 10 µg/animal ITH, 60 Minutes): 8.4 g and 4.2 g and 30.3 g and 12.2 g and -2.4 g | Inhibition (%) ([1]; 10 µg/animal ITH, 60 Minutes): 38% | Tactile Pressure (g) Post-Treatment Average ([1]; 10 µg/animal ITH, 120 Minutes): 11.0 g | Tactile Pressure (g) Δ Treatment Average ([1]; 10 µg/animal ITH, 120 Minutes, Δ Blank 27.9): 0.6 g | Tactile Pressure (g) Post-Treatment [1, 5]: 13.5 g and 10.8 g and 11.8 g and 12.3 g and 6.4 g | Tactile Pressure (g) Δ Treatment [1, 5]: 1.4 g and -0.1 g and 5.2 g and 1.3 g and -4.9 g | Inhibition (%) ([1]; 10 µg/animal ITH, 120 Minutes): 2% | peak of analgesic activity, time post-dosing ([1]; 10 µg/animal intrathecal): 30 min | analgesic activity ([1]; 10 µg/animal intrathecal, 30 minutes post-injection): significant analgesic activity | analgesic activity ([1]; 10 µg/animal intrathecal, 120 minutes post-dosing): no longer evident | behavioral changes in treated animals [2]: did not cause behavioral changes | gait after intrathecal injection ([2]; all treated animals): normal gait | effectiveness for treatment of chronic pelvic pain [3]: not effective
